Measurements reported in patent US20110097385A1, “Delivery System for Drug and Cell Therapy” (TTDC BIO L.P., priority 2003, published 2011).

Assays:
mouse = experiment: Blood glucose in mouse after subcutaneous two phase composition or insulin alone; type: in vivo; conditions: 0.5 UI insulin subcutaneously
Description: 0.05 ml of the PEG and insulin solution is mixed with 0.15 ml of the microparticle and dextran suspension to form a two phase composition or mixture. 0.02 ml of the two phase mixture containing 0.5 UI of insulin is injected subcutaneously into mouse.

humans = conditions: in humans, company information (Novo Nordisk); cited from earlier work
mice = experiment: Blood glucose in mice after injected insulin with or without crystallized dextran microparticles; type: in vivo; conditions: mouse
Description: The suspension was prepared as follows. 5.0 g of Dextran T10 (Pharmacia, Uppsala, Sweden) was dissolved in 20.0 g of water. The solution was filtered through a 0.22 μm filter (Millipore, Bedford, Mass.) and freeze dried. 3.0 g of the resulting powder was dissolved in 3.0 g of sterile water and placed in box at temperature 60° C. […] Finally, the produced crystallized dextran microparticles suspension was mixed with aqueous insulin solution and used in the experiment with mice. Samples of the suspension were introduced into the mice's legs and samples of animal blood were taken from each mouse's tail and analyzed for glucose concentrations.
In comparative example 15, no insulin was injected into the mouse.

Chinchilla rabbits = experiment: Blood glucose and duration of efficacy in rabbits after subcutaneous insulin formulations; conditions: rabbit, 8 UI subcutaneously
Description: Samples of the formulation were subcutaneously injected into the rabbits. […] Samples of animal blood were taken from the rabbit's ear vein and analyzed for glucose concentration. Blood glucose concentration was measured with a glucose analyzer (One-Touch® Lifescan, Johnson & Johnson, Milpitas, Calif., USA) after proper calibration.
In comparative examples 23 and 24, two intact rabbits were not provided any insulin.

[1] = insulin 0.5 UI injected, listed as 16
[2] = insulin 0.5 UI injected, listed as 21

Actrapid HM®: short-acting human recombinant insulin of Novo Nordisk, injected alone; Ex 21 is the average of 16 and 17
glucose 15 min (mouse; 15 min): 3.7 mmol/L
glucose 30 min (mouse; 30 min): 2.3 mmol/L
glucose 45 min (mouse; 45 min): 1.7 mmol/L
glucose 60 min (mouse; 60 min): 2.9 mmol/L
glucose 120 min (mouse; 120 min): 6.7 mmol/L
advertised duration of efficacy (humans): eight
change of blood glucose level from 120 minutes to 390 minutes after injection (mice; insulin 0.5 UI): did substantially increase
glucose 0 min (mice; insulin 0.5 UI injected): 8.1 mmol/L
glucose 0 min (mice; [1]): 5.9 mmol/L
glucose 0 min (mice; [2]): 7 mmol/L
glucose 15 min (mice; insulin 0.5 UI injected): 3.8 mmol/L
glucose 15 min (mice; [1]): 3.3 mmol/L
glucose 15 min (mice; [2]): 3.6 mmol/L
glucose 30 min (mice; insulin 0.5 UI injected): 2.8 mmol/L
glucose 30 min (mice; [1]): 2.7 mmol/L
glucose 30 min (mice; [2]): 2.8 mmol/L
glucose 45 min (mice; insulin 0.5 UI injected): 1.9 mmol/L
glucose 45 min (mice; [1]): 1.8 mmol/L
glucose 45 min (mice; [2]): 1.9 mmol/L
glucose 120 min (mice; insulin 0.5 UI injected, 120 min): 0.9 mmol/L
glucose 210 min (mice; insulin 0.5 UI injected): 3.7 mmol/L
glucose 210 min (mice; [1]): 3.5 mmol/L
glucose 210 min (mice; [2]): 3.6 mmol/L
glucose 270 min (mice; insulin 0.5 UI injected): 3.4 mmol/L
glucose 270 min (mice; [1]): 3.0 mmol/L
glucose 270 min (mice; [2]): 3.2 mmol/L
glucose 390 min (mice; insulin 0.5 UI injected): 3.5 mmol/L
glucose 390 min (mice; [1]): 3.2 mmol/L
glucose 390 min (mice; [2]): 3.4 mmol/L

Monotard HM®: long-acting insulin of Novo Nordisk (40 UI/ml), injected subcutaneously alone at 8 UI
glucose 0 hours (Chinchilla rabbits; 0 hours): 5.4 mmol/L
glucose 0.5 hours (Chinchilla rabbits; listed as 25): 5.8 mmol/L
glucose 0.5 hours (Chinchilla rabbits; listed as 26): 5.0 mmol/L
glucose 1 hour (Chinchilla rabbits; listed as 25): 3.8 mmol/L
glucose 1 hour (Chinchilla rabbits; listed as 26): 4.2 mmol/L
glucose 1.5 hours (Chinchilla rabbits; listed as 25): 3.2 mmol/L
glucose 1.5 hours (Chinchilla rabbits; listed as 26): 2.9 mmol/L
glucose 2 hours (Chinchilla rabbits; listed as 25): 2.4 mmol/L
glucose 2 hours (Chinchilla rabbits; listed as 26): 2.5 mmol/L
glucose 16 hours (Chinchilla rabbits; listed as 25): 3.9 mmol/L
glucose 16 hours (Chinchilla rabbits; listed as 26): 4.0 mmol/L
glucose 24 hours (Chinchilla rabbits; listed as 25): 5.6 mmol/L
glucose 24 hours (Chinchilla rabbits; listed as 26): 5.1 mmol/L
glucose […] (Chinchilla rabbits; listed as 25): 2.6 mmol/L
glucose […] (Chinchilla rabbits; listed as 26): 2.4 mmol/L
advertised duration of efficacy (humans): twenty four
